Several values for one entry are separate records, joined by “and”; a condition that tells them apart may be missing. Equal values may be shown once. Inconclusive results and toxic doses are left out. Rule as the data show it: active = T/C of 150% or more; inactive = T/C below 125%.
System: L1210 leukemia ip in BDF1 mice, survival T/C
Assay: NCI In Vivo Anticancer Drug Screen. Data for tumor model L1210 Leukemia (intraperitoneal) in B6D2F1 (BDF1) mice
Conditions: endpoint: mean survival time, higher = longer survival
Method in brief: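 Value reflects the ratio of survival in compound-treated mice to survival in vehicle-treated controls, with both groups carrying the same transplanted tumor.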

[1] = dose: 100.0 mg/kg/injection, schedule: Q04DX003 (ip), vehicle: saline with Tween-80
[2] = dose: 200.0 mg/kg/injection, schedule: Q04DX003 (ip), vehicle: saline with Tween-80
[3] = dose: 400.0 mg/kg/injection, schedule: Q04DX003 (ip), vehicle: saline with Tween-80
[4] = dose: 100.0 mg/kg/injection, schedule: Q01DX001 (ip), vehicle: saline
[5] = dose: 100.0 mg/kg/injection, schedule: Q01DX009 (ip), vehicle: Klucel (hydroxypropylcellulose) (HPC)
[6] = dose: 100.0 mg/kg/injection, schedule: Q04DX003 (ip), vehicle: Klucel (hydroxypropylcellulose) (HPC)
[7] = dose: 100.0 mg/kg/injection, schedule: Q04DX003 (ip), vehicle: saline
[8] = dose: 200.0 mg/kg/injection, schedule: Q01DX001 (ip), vehicle: saline
[9] = dose: 200.0 mg/kg/injection, schedule: Q01DX009 (ip), vehicle: Klucel (hydroxypropylcellulose) (HPC)
[10] = dose: 200.0 mg/kg/injection, schedule: Q04DX003 (ip), vehicle: Klucel (hydroxypropylcellulose) (HPC)
[11] = dose: 200.0 mg/kg/injection, schedule: Q04DX003 (ip), vehicle: saline
[12] = dose: 400.0 mg/kg/injection, schedule: Q01DX001 (ip), vehicle: saline
[13] = dose: 400.0 mg/kg/injection, schedule: Q01DX009 (ip), vehicle: Klucel (hydroxypropylcellulose) (HPC)
[14] = dose: 400.0 mg/kg/injection, schedule: Q04DX003 (ip), vehicle: Klucel (hydroxypropylcellulose) (HPC)
[15] = dose: 400.0 mg/kg/injection, schedule: Q04DX003 (ip), vehicle: saline
[16] = dose: 75.0 mg/kg/injection, schedule: Q01DX001 (ip), vehicle: other

Measured: T/C

CC(=O)OCC1OCC(OC(C)=O)C(OC(C)=O)C1OC(C)=O (configuration not stated)
inactive: [1] 94 % of control | [2] 98 % of control | [3] 98 % of control

O=C(O)C1C2CC(C(Br)C2Br)C1C(=O)O (configuration not stated)
inactive: [4] 98 % of control | [5] 95 % of control | dose: 100.0 mg/kg/injection, schedule: Q01DX009 (ip), vehicle: acetone 98 % of control | [6] 100 % of control | [7] 94 % of control | [8] 95 % of control | [9] 97 % of control | dose: 200.0 mg/kg/injection, schedule: Q01DX009 (ip), vehicle: acetone 93 % of control | [10] 103 % of control | [11] 94 % of control | [12] 96 % of control | [13] 98 % of control | dose: 400.0 mg/kg/injection, schedule: Q01DX009 (ip), vehicle: acetone 104 % of control | [14] 105 % of control | [15] 91 % of control

N=c1c2n[nH]nc2ncn1O
inactive: [16] 92 % of control | dose: 150.0 mg/kg/injection, schedule: Q01DX001 (ip), vehicle: other 110 % of control | dose: 300.0 mg/kg/injection, schedule: Q01DX001 (ip), vehicle: other 101 % of control

c1ccc(C2=NNc3cccc[n+]3C2)cc1
inactive: [16] 101 % of control

O=C(Cc1ccccn1)c1ccccc1
inactive: [6] 96 % of control | [10] 96 % of control | [14] 92 % of control

Clc1c2c(nc3ccccc13)CCCC2
inactive: [4] 95 % of control | [8] 95 % of control

O=C(NCCCl)NCC1CCCO1 (configuration not stated)
inactive: dose: 50.0 mg/kg/injection, schedule: Q04DX003 (ip), vehicle: Klucel (hydroxypropylcellulose) (HPC) 103 % of control | [6] 103 % of control | [10] 103 % of control | [14] 90 % of control

CC12CCC(CC1)C2C(=O)O (configuration not stated)
inactive: dose: 75.0 mg/kg/injection, schedule: Q01DX009 (ip), vehicle: saline with Tween-80 106 % of control | [1] 102 % of control | dose: 150.0 mg/kg/injection, schedule: Q01DX009 (ip), vehicle: saline with Tween-80 93 % of control | [2] 98 % of control | dose: 300.0 mg/kg/injection, schedule: Q01DX009 (ip), vehicle: saline with Tween-80 98 % of control | [3] 102 % of control

CCOc1cccc2c1OC(COS(=O)(=O)c1ccc(C)cc1)CO2 (configuration not stated)
inactive: [4] 95 % of control | [8] 95 % of control | [12] 95 % of control

C=CCC(Cl)(C(=O)OC)C(=O)OC
inactive: [1] 91 % of control | [2] 89 % of control | [3] 94 % of control

CC(C)OP1(=O)OCC(C)O1 (configuration not stated)
inactive: [4] 102 % of control | [8] 98 % of control | [12] 102 % of control

Nc1nc(Nc2cccc(Cl)c2)cc(=O)[nH]1
inactive: dose: 100.0 mg/kg/injection, schedule: Q01DX Z (ip), vehicle: methylcellulose (MC) 90 % of control | dose: 200.0 mg/kg/injection, schedule: Q01DX Z (ip), vehicle: methylcellulose (MC) 99 % of control

C#CCOC(=O)C(Cl)(Cl)Cl
inactive: dose: 100.0 mg/kg/injection, schedule: Q04DX002 (ip), vehicle: other 107 % of control | dose: 200.0 mg/kg/injection, schedule: Q04DX002 (ip), vehicle: other 96 % of control

CC1(C)C(=NC2CCCCC2)C(C)(C)C1=NC1CCCCC1
inactive: dose: 75.0 mg/kg/injection, schedule: Q01DX001 (ip), vehicle: saline 101 % of control | dose: 150.0 mg/kg/injection, schedule: Q01DX001 (ip), vehicle: saline 100 % of control | dose: 300.0 mg/kg/injection, schedule: Q01DX001 (ip), vehicle: saline 100 % of control

CC1([N+](=O)[O-])COP(=O)(Nc2cccc(Br)c2)OC1 (configuration not stated)
inactive: dose: 100.0 mg/kg/injection, schedule: Q01DX001 (ip), vehicle: carboxymethylcellulose (CMC) 96 % of control | dose: 200.0 mg/kg/injection, schedule: Q01DX001 (ip), vehicle: carboxymethylcellulose (CMC) 94 % of control | dose: 400.0 mg/kg/injection, schedule: Q01DX001 (ip), vehicle: carboxymethylcellulose (CMC) 100 % of control

OCC(O)C(O)CO (configuration not stated) (tested in a mixture with another compound)
inactive: dose: 50.0 mg/kg/injection, schedule: Q04DX002 (ip), vehicle: Klucel (hydroxypropylcellulose) (HPC) 104 % of control | dose: 100.0 mg/kg/injection, schedule: Q04DX002 (ip), vehicle: Klucel (hydroxypropylcellulose) (HPC) 95 % of control | dose: 200.0 mg/kg/injection, schedule: Q04DX002 (ip), vehicle: Klucel (hydroxypropylcellulose) (HPC) 98 % of control

Cc1cc([N+](=O)[O-])cc(S(=O)(=O)O)c1C
inactive: dose: 50.0 mg/kg/injection, schedule: Q01DX009 (ip), vehicle: saline with Tween-80 102 % of control | dose: 100.0 mg/kg/injection, schedule: Q01DX009 (ip), vehicle: saline with Tween-80 98 % of control and 92 % of control | dose: 200.0 mg/kg/injection, schedule: Q01DX009 (ip), vehicle: saline with Tween-80 98 % of control and 106 % of control | dose: 400.0 mg/kg/injection, schedule: Q01DX009 (ip), vehicle: saline with Tween-80 98 % of control

CC(O)(C(N)=O)c1cc(Cl)ccc1Cl (configuration not stated)
inactive: dose: 100.0 mg/kg/injection, schedule: Q01DX009 (ip), vehicle: water 94 % of control | dose: 100.0 mg/kg/injection, schedule: Q04DX003 (ip), vehicle: water 90 % of control | dose: 200.0 mg/kg/injection, schedule: Q01DX009 (ip), vehicle: water 96 % of control | dose: 200.0 mg/kg/injection, schedule: Q04DX003 (ip), vehicle: water 95 % of control | dose: 400.0 mg/kg/injection, schedule: Q01DX009 (ip), vehicle: water 107 % of control | dose: 400.0 mg/kg/injection, schedule: Q04DX003 (ip), vehicle: water 96 % of control

CC1(C)OC2OC(COC(=O)c3ccccc3)C(=O)C2O1 (configuration not stated)
inactive: dose: 50.0 mg/kg/injection, schedule: Q01DX001 (ip), vehicle: saline 101 % of control | [4] 106 % of control | [8] 101 % of control | [12] 98 % of control

O=C(NO)c1cc(Cl)c(C(=O)NO)cc1Cl
inactive: dose: 100.0 mg/kg/injection, schedule: Q01DX009 (ip), vehicle: other 93 % of control | [7] 102 % of control | dose: 200.0 mg/kg/injection, schedule: Q01DX009 (ip), vehicle: other 95 % of control | [11] 102 % of control | [15] 97 % of control

N#CCN1CCCCC1
inactive: dose: 25.0 mg/kg/injection, schedule: Q01DX009 (ip), vehicle: saline 115 % of control | dose: 50.0 mg/kg/injection, schedule: Q01DX009 (ip), vehicle: saline 112 % of control

CC(=O)N1C(=O)NC(=O)C1(C)c1cccs1 (configuration not stated)
inactive: [1] 104 % of control | [2] 98 % of control | [3] 105 % of control

Nc1ncc(Br)cn1
inactive: [1] 105 % of control | [2] 100 % of control | [3] 102 % of control

Cc1cccc2cc3ccc4ccccc4c3cc12
inactive: [5] 102 % of control | dose: 100.0 mg/kg/injection, schedule: Q04DX003 (ip), vehicle: other 101 % of control | [9] 95 % of control | dose: 200.0 mg/kg/injection, schedule: Q04DX003 (ip), vehicle: other 101 % of control | [13] 101 % of control | dose: 400.0 mg/kg/injection, schedule: Q04DX003 (ip), vehicle: other 95 % of control

Source: PubChem BioAssay AID248 (DTP/NCI, 2004)
